Data published in the supplement of paper PMC10307832.

Tests used:
Experiment in all cases: relative viability (nuclei count vs DMSO), 5 days (fraction); higher = more cells survive
[1] = compound: CC1=C(C(=O)N2C=CSC2=N1)CCN3CCC(=C(C4=CC=CC=C4)C5=CC=C(C=C5)F)CC3 + CCNC(=O)c1noc(-c2cc(C(C)C)c(O)cc2O)c1-c1ccc(CN2CCOCC2)cc1 [Luminespib] (partner 0.01 µM)
Procedure, shortened: (§1)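 A single step with final 0.05% Triton X-100, 1% formaldehyde and 1 ug/ml Hoechst fixed the cells and stained nuclei 5 days after treatment. Lung cancer cell lines in 1536-well plates had been treated by pin tool the day after seeding with one drug alone or a fixed anchor-drug dose plus five library-drug doses (not always all listed) in √10 steps, and nuclei were counted on 4× images. Relative viability is the ratio of nuclei in treated wells to nuclei in vehicle wells, taken as the median of duplicate plates.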

[2] = compound: CC1=C(C(=O)N2C=CSC2=N1)CCN3CCC(=C(C4=CC=CC=C4)C5=CC=C(C=C5)F)CC3 + COc1cccc2cc(-c3nc([C@H]4CC[C@H](C(=O)O)CC4)n4ncnc(N)c34)[nH]c12 [OSI-027] (partner 0.5 µM)
Procedure, shortened: as §1

[3] = compound: CC1=C(C(=O)N2C=CSC2=N1)CCN3CCC(=C(C4=CC=CC=C4)C5=CC=C(C=C5)F)CC3 + CS(=O)(=O)CCNCc1ccc(-c2ccc3ncnc(Nc4ccc(OCc5cccc(F)c5)c(Cl)c4)c3c2)o1 [Lapatinib] (partner 2 µM)
Procedure, shortened: as §1

[4] = compound: CC1=C(C(=O)N2C=CSC2=N1)CCN3CCC(=C(C4=CC=CC=C4)C5=CC=C(C=C5)F)CC3 + C[C@]1(O)C[C@@H](c2nc(-c3ccc4ccc(-c5ccccc5)nc4c3)c3c(N)nccn32)C1 [Linsitinib] (partner 1 µM)
Procedure, shortened: as §1

Cell Line	relative viability ([1]; first compound 0.08 µM)	relative viability ([1]; first compound 0.253 µM)	relative viability ([1]; first compound 0.8 µM)	relative viability ([1]; first compound 2.53 µM)	relative viability ([1]; first compound 8 µM)	relative viability ([2]; first compound 0.08 µM)	relative viability ([2]; first compound 0.253 µM)	relative viability ([2]; first compound 0.8 µM)	relative viability ([2]; first compound 2.53 µM)	relative viability ([2]; first compound 8 µM)	relative viability ([3]; first compound 0.08 µM)	relative viability ([3]; first compound 0.253 µM)	relative viability ([3]; first compound 0.8 µM)	relative viability ([3]; first compound 2.53 µM)	relative viability ([3]; first compound 8 µM)	relative viability ([4]; first compound 0.08 µM)	relative viability ([4]; first compound 0.253 µM)	relative viability ([4]; first compound 0.8 µM)	relative viability ([4]; first compound 2.53 µM)	relative viability ([4]; first compound 8 µM)
BEN	0.439	0.33	0.308	0.308	0.35	0.294	0.311	0.283	0.318	0.278	0.507	0.626	0.798	0.757	0.53	0.781	0.967	1.07	0.847	0.79
LU99A	0.274	0.262	0.282	0.205	0.259	0.333	0.313	0.254	0.276	0.25	0.894	1.04	0.998	1.06	0.835	0.565	0.495	0.517	0.666	0.446
NCI-H1755	0.467	0.548	0.374	0.333	0.519	0.744	0.861	0.664	0.68	0.672	1.08	1.01	1.05	1.08	0.861	1.04	0.98	0.973	0.981	0.779
NCI-H1437	1.11	1.21	1.28	1.27	0.739	0.978	0.879	0.836	1.08	0.631	–	0.718	0.88	0.928	0.487	–	1.07	1.14	1.14	0.622
NCI-H2085	0.361	0.362	0.458	0.392	0.323	0.818	0.704	0.87	0.799	0.464	0.805	0.774	0.763	0.986	0.72	1.1	0.92	1.02	1.06	0.7
RERF-LC-KJ	1.14	1.12	1.22	1.24	0.813	0.411	0.583	0.546	0.523	0.497	0.873	0.753	0.921	0.907	0.666	0.879	0.933	0.883	0.832	0.672
LOU-NH91	0.377	0.34	0.335	0.366	0.361	0.734	0.769	0.767	0.76	0.642	0.774	0.809	0.765	0.814	0.803	0.923	0.932	1.01	1.02	0.821
NCI-H2228	0.126	0.194	0.181	0.137	0.101	0.567	0.532	0.632	0.597	0.378	1.04	0.974	1.14	0.99	0.635	0.769	0.803	0.672	0.706	0.445
